Source: the OligoGym collection
Values joined by “and” are separate entries in the source; they are usually repeats but may differ in a detail not shown here. Equal entries are not always repeated. After the bases stand the sugars from the 5' end (letter, count) and the backbone: PS all phosphorothioate, else s phosphorothioate and o phosphodiester by linkage. Methylation of C is not given here. e = 2'-O-(2-methoxyethyl) (MOE); k = constrained ethyl (cEt); d = 2'-deoxy (DNA); m = 2'-O-methyl

Biological target: HSD17B13
Conditions: ASO, HepaRG

Sequence	target mRNA inhibition (1 µM)	also measured
AACAAGATTAGTCTTG (sugars k3 d10 k3, PS)	40%	–
AGGATTAATCATGGGA (sugars k3 d10 k3, PS)	37%	–
CTTTGAGACTCTTGTT (sugars k3 d10 k3, PS)	61%	–
GATTAATCATGGGACA (sugars k3 d10 k3, PS)	9%	–
TTGATCTCTTAGCTGT (sugars k3 d9 k3 e1, PS)	64%	–
CTGCTGCTAGTGCCAA (sugars k3 d10 k3, PS)	57%	–
CTTAGCTGTGCACTCA (sugars k3 d10 k3, PS)	60%	–
GTAATCACAAGTAAGG (sugars kkdddddddddkekek, PS)	72%	target mRNA inhibition (0.02 µM): 0%; target mRNA inhibition (0.078 µM): 2%; target mRNA inhibition (0.313 µM): 35%; target mRNA inhibition (1.25 µM): 49%; target mRNA inhibition (5 µM): 70%
CCGTTTTGGGCTAATG (sugars k3 d9 k3 e1, PS)	69%	–
CGTTTGACTGCTGCTA (sugars kkdddddddddkekek, PS)	48%	–
GATACATACCACTCTT (sugars k3 d10 k3, PS)	52%	–
TCATAGTGGACTTCAT (sugars k3 d10 k3, PS)	36%	–
TTAAGGATCATTGCAG (sugars k3 d10 k3, PS)	14%	–
CACCATGACAGCTTCA (sugars k3 d10 k3, PS)	65%	–
GTTGGAAGATGTATAC (sugars k3 d10 k3, PS)	53%	–
TAGCTGTGCACTCATT (sugars k3 d10 k3, PS)	40%	–
ATGAGGTTTTGATACC (sugars k3 d10 k3, PS)	47%	–
GTTAGCAGCTAAAATC (sugars k3 d10 k3, PS)	45%	–
AATTGATACACCAATG (sugars k3 d10 k3, PS)	55%	–
CAAAGTTAATAGGACT (sugars k3 d10 k3, PS)	50%	–
TCATTATAAGCTAACT (sugars k3 d10 k3, PS)	0%	–
TTAGAAACTGCTCCTC (sugars k3 d10 k3, PS)	48%	–
TGATACACCAATGCAG (sugars k3 d1 m1 d8 k3, PS)	38%	–
TCTTAGCTGTGCACTC (sugars k3 d10 k3, PS)	69%	–

Sequence	target mRNA inhibition (1 µM)	also measured
TACTAATGTCCAAGGA (sugars k3 d10 k3, PS)	77%	target mRNA inhibition (0.02 µM): 4%; target mRNA inhibition (0.078 µM): 0%; target mRNA inhibition (0.313 µM): 38%; target mRNA inhibition (1.25 µM): 64%; target mRNA inhibition (5 µM): 75%
AGACAAGAGTTCTTGC (sugars k3 d10 k3, PS)	30%	–
TAGTGCCAAACCAATG (sugars k3 d10 k3, PS)	46% and 61%	–
GTCTTAAACCTTCCCT (sugars kkdddddddddkekek, PS)	28%	–
AAAAGGTTATCATGGG (sugars k3 d10 k3, PS)	49%	–
TGATTAATCTTGATGC (sugars k3 d10 k3, PS)	15%	–
TCTATACAAAGGCAGT (sugars k3 d10 k3, PS)	53%	–
GACAGAGCAATTTACT (sugars k3 d10 k3, PS)	55%	–
AATATAGCCCTTTCCC (sugars k3 d10 k3, PS)	44%	–
TTCTATGCAAGCCTTC (sugars k3 d10 k3, PS)	51%	–
TTTCTTATGTAATAGC (sugars k3 d9 k3 e1, PS)	60%	–
ATATACGATGGAACAA (sugars k3 d10 k3, PS)	0%	–
TCCCAACCAAACTTCC (sugars k3 d9 k3 e1, PS)	24%	–
CGCCTAGTTTTCGGCA (sugars k3 d10 k3, PS)	23%	–
TCTCTAAAGCAGGCTA (sugars k3 d10 k3, PS)	60%	–
TCTAGAATTAAGGGCT (sugars k3 d10 k3, PS)	45%	–
GCATCAAGACATTCTA (sugars kkdddddddddkekek, PS)	43%	–
TGTAGTGGGAGTCGGA (sugars k3 d10 k3, PS)	62%	–
CAGGTTGAGATAAAGC (sugars k3 d9 k3 e1, PS)	63%	–
ACAAUATGGGATGAGG (sugars k3 d1 m1 d8 k3, PS)	70%	target mRNA inhibition (0.02 µM): 0%; target mRNA inhibition (0.078 µM): 2%; target mRNA inhibition (0.313 µM): 0%; target mRNA inhibition (1.25 µM): 48%; target mRNA inhibition (5 µM): 59%
CAAGACATTCTAGCCT (sugars k3 d10 k3, PS)	58%	–
ATTTAAAATAGAGTCG (sugars k3 d10 k3, PS)	24%	–
TATTCTCCAACTCAGG (sugars k3 d10 k3, PS)	54%	–
GAACAATATGGGATGA (sugars k3 d1 m1 d8 k3, PS)	50%	–

Sequence	target mRNA inhibition (1 µM)	also measured
ATTGAATAGCCATGTA (sugars k3 d10 k3, PS)	39%	–
ATGGCTACAGATTGGA (sugars kkdddddddddkekek, PS)	57%	–
CATCTATCAGACTTCT (sugars k3 d10 k3, PS)	38%	–
CATGGCTACAGATTGG (sugars k3 d10 k3, PS)	54%	–
TCCATAAAGCTGGATT (sugars k3 d10 k3, PS)	13%	–
GACTGCTGCTAGTGCC (sugars k3 d10 k3, PS)	67%	–
GATGGTAAGTCAAATA (sugars k3 d10 k3, PS)	85%	target mRNA inhibition (0.02 µM): 22%; target mRNA inhibition (0.078 µM): 34%; target mRNA inhibition (0.313 µM): 47%; target mRNA inhibition (1.25 µM): 74%; target mRNA inhibition (5 µM): 90%
GTTACCAGAGCATTCA (sugars k3 d10 k3, PS)	73%	target mRNA inhibition (0.02 µM): 19%; target mRNA inhibition (0.078 µM): 36%; target mRNA inhibition (0.313 µM): 63%; target mRNA inhibition (1.25 µM): 74%; target mRNA inhibition (5 µM): 92%
AGCATTGATTCGAAAC (sugars k3 d10 k3, PS)	70%	–
AACATCTCTGGGACCA (sugars k3 d10 k3, PS)	74%	target mRNA inhibition (0.02 µM): 0%; target mRNA inhibition (0.078 µM): 11%; target mRNA inhibition (0.313 µM): 44%; target mRNA inhibition (1.25 µM): 64%; target mRNA inhibition (5 µM): 81%
AATGCTACTTGAACAG (sugars k3 d9 k3 e1, PS)	50%	–
TACCUCTAAGTTAGCC (sugars k3 d1 m1 d8 k3, PS)	13%	–
TACATCACCCACTTCT (sugars k3 d10 k3, PS)	37%	–
ACTCTATAATAAGGTA (sugars k3 d10 k3, PS)	42%	–
CCGTUTTGGGCTAATG (sugars k3 d1 m1 d8 k3, PS)	51%	–
ACACTAATGAATCATG (sugars k3 d10 k3, PS)	7%	–
AAAATAGAGTCGGTCA (sugars k3 d10 k3, PS)	71%	target mRNA inhibition (0.02 µM): 28%; target mRNA inhibition (0.078 µM): 27%; target mRNA inhibition (0.313 µM): 51%; target mRNA inhibition (1.25 µM): 69%; target mRNA inhibition (5 µM): 91%
TTTCATAGGGAGACCA (sugars k3 d10 k3, PS)	71%	–
CTACACTAATATTGAG (sugars k3 d9 k3 e1, PS)	10%	–
ATATTCTGTGGCATGG (sugars kkdddddddddkekek, PS)	43%	–
CCAGAGCATTCATCAG (sugars k3 d10 k3, PS)	83%	target mRNA inhibition (0.02 µM): 0%; target mRNA inhibition (0.078 µM): 13%; target mRNA inhibition (0.313 µM): 41%; target mRNA inhibition (1.25 µM): 71%; target mRNA inhibition (5 µM): 79%
AATTCACCTTGACTAA (sugars k3 d10 k3, PS)	9%	–
GTTCATTCGAATTTCT (sugars k3 d10 k3, PS)	76%	target mRNA inhibition (0.02 µM): 0%; target mRNA inhibition (0.078 µM): 19%; target mRNA inhibition (0.313 µM): 60%; target mRNA inhibition (1.25 µM): 87%; target mRNA inhibition (5 µM): 88%
TTTAACTTTCCTCCGT (sugars k3 d10 k3, PS)	16%	–

Sequence	target mRNA inhibition (1 µM)	also measured
ATGAGGTTTTGATACC (sugars k3 d1 m1 d8 k3, PS)	49%	–
AAGAGTCAGTATCCTC (sugars k3 d9 k3 e1, PS)	67%	–
TTTGACTGCTGCTAGT (sugars k3 d10 k3, PS)	21%	–
AGTCCATGCAAAAGCA (sugars kkdddddddddkekek, PS)	52%	–
GGGAATGCTCATATTA (sugars k3 d10 k3, PS)	18%	–
TTCTGTAGGACTCTGC (sugars k3 d10 k3, PS)	72%	–
GTAACGGTGATCAAAT (sugars k3 d9 k3 e1, PS)	32%	–
TGACAATGTGCAGCTC (sugars k3 d10 k3, PS)	64%	–
GTTTATCATGTGCCAC (sugars k3 d10 k3, PS)	83%	target mRNA inhibition (0.02 µM): 0%; target mRNA inhibition (0.078 µM): 21%; target mRNA inhibition (0.313 µM): 44%; target mRNA inhibition (1.25 µM): 76%; target mRNA inhibition (5 µM): 94%
GCAAGCCAACAGAGAG (sugars k3 d9 k3 e1, PS)	38%	–
TTAGAGTGCTTAGTTC (sugars k3 d10 k3, PS)	58%	–
CTAGTGCCAAACCAAT (sugars k3 d9 k3 e1, PS)	61%	–
AGTGAACATACATTGT (sugars k3 d10 k3, PS)	48%	–
ACTGATACATACCACT (sugars k3 d10 k3, PS)	52%	–
TACTTTTAGGGAGGTA (sugars k3 d10 k3, PS)	28%	–
CCTCTAAGTTAGCCCC (sugars kkdddddddddkekek, PS)	20%	–
TGATCTTAAGGATCAT (sugars k3 d10 k3, PS)	0%	–
AATGTCTTGGTAATCT (sugars k3 d10 k3, PS)	20%	–
GTAATTGCATCTGCTC (sugars k3 d10 k3, PS)	51%	–
TCTTAAGATACCCAGG (sugars k3 d9 k3 e1, PS)	48%	–
GATTAAGGCAAAGATC (sugars k3 d10 k3, PS)	25%	–
